Measured values reported in patent publication US6921531B2, “Administering bifunctional molecules containing a drug moiety and presenter protein ligand for therapy” (The Board of Trustees of the Leland Stanford Junior …, priority 1998, dated 2005).
“Also recorded” adds a separate entry of the source.

Key:
FKBP12 = biological target: T1, FKBP12 (Homo sapiens, UniProt P62942); assay: Binding constants (Kd) for FKBP12, isothermal titration calorimetry
T1 construct: GST (N, cleaved yes); made in house
T1 sequence (P62942 whole entry, species assumed): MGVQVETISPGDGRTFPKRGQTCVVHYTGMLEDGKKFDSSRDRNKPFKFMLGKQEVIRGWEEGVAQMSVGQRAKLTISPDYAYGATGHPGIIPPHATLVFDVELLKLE
Text: SLF was synthesized according to the procedures of Holt et al. [J. Am. Chem. Soc. 1993, 115, 9925]. SLF was coupled to the N-terminus of the resin-bound protected pYEEI peptide using PyBOP. The heterodimeric SLFpYEEI was deprotected and cleaved from the Novasyn TGT resin (Calbiochem-Novabiochem, San Diego, Ca.) using 25% trifluoroacetic acid and 2.5% triisopropyl silane in methylene chloride and the desired product was isolated using reverse phase HPLC. C. […] Recombinant FKBP12 was expressed as a GST fusion protein and bound to glutathione beads (Pharmacia). Using thrombin (Sigma) to cleave the GST-FKBP12 fusion protein at a thrombin cleavage site in the linker between GST and FKBP12, recombinant FKBP12 could be released from the glutathione beads where GST remained bound. FKBP52 was expressed with a tag of six histidine residues at its N-terminus (pET28c expression vector, Novagen). The recombinant protein was bound via the histidine tag to Ni^2+ NTA agarose beads (Qiagen), washed extensively and eluted with imidazole. […]
SLFpYEEI and FKpYEEI are bifunctional molecules that can bind FKBP12 and FKBP52 as well as the Fyn SH2 domain (FIG. 2). The binding constants (Kd values) of the bifunctional molecules for the three proteins were measured using isothermal titration calorimetry (ITC) (Table 1).

PLC SH2 domain = assay: Competition binding assay of radioactive PLC SH2 domain to pYEEI beads; settings: 1.0-1.5 μM ligand plus FKBP12 (0.5-4.0 μM or 2.0 μM)
Text: The pYEEI peptide was coupled to Affi-Gel 10 beads (Biorad) via its amino-group. The Fyn, Lck and PLC SH2 domains were expressed in bacteria as GST fusion proteins. The linker between the GST protein and the SH2 domain contained a thrombin cleavage site and a protein kinase A (PKA) phosphorylation site. The fusion protein on glutathione beads was radioactively labeled at the PKA phosphorylation site using PKA (Sigma). After extensive washing of the beads, the radioactive SH2 domain was released by cleavage with thrombin (Sigma). In a typical binding assay, 7.5 L of a 1:1 peptide bead slurry were incubated with the radioactive SH2 domain (200 nM) for 2 hours in 100 L of binding buffer (20 mM Tris pH7.2; 150 mM NaCl). In order to separate the radioactive protein bound to the beads, the binding reaction was transfered into a PCR tube (USA Scientific Plastic), whose bottom had been punctured with a 26gauge needle. The PCR tube was placed in a 0.5 mL Eppendorf tube which in turn was placed in a regular 1.5 mL Eppendorf tube. The tubes were spun for 1 second at maximal speed in an Eppendorf centrifuge resulting in the separation of the beads remaining in the PCR tube and the supernatant, which was collected in the 0.5 ml Eppendorf tube. The beads were resuspended in […] PBS and the radioactivity was counted in a liquid scintillation counter after addition of 3 ml scintillation fluid. The radioactivity remaining in the 100 L supernatant was counted in the same way. It was determined that under the conditions described 65% Fyn, 25% PLC and 15%Lck SH2 domain were bound to the beads. […]
The binary complex of FKpYEEI and FKBP 12 has the same affinity for the Fyn SH2 domain as free FKpYEEI (see FIG. 7). […] The binding reactions were rotated at room temperature for 2 hours, centrifuged and analysed as described above.
In this assay, in 100 L binding reactions, radioactively labeled PLC SH2 domain (400 nM) was incubated with 7.5 L of a 1:1 pYEEI bead slurry. […] The binding reactions were rotated at room temperature for 2 hours, centrifuged and analysed as described above. […]

Row | SMILES | Kd (FKBP12) | Effect of FKBP12 on affinity for the PLC SH2 domain (PLC SH2 domain)
1 | CC[C@H](C)[C@H](NC(=O)[C@H](CCC(=O)O)NC(=O)[C@H](CCC(=O)O)NC(=O)[C@H](Cc1ccc(OP(=O)(O)O)cc1)NC(=O)OCC[C@@H]1/C=C(\C)C[C@H](C)C[C@H](OC)[C@H]2O[C@@](O)(C(=O)C(=O)N3CCCC[C@H]3C(=O)O[C@H](/C(C)=C/[C@@H]3CC[C@@H](O)[C@H](OC)C3)[C@H](C)[C@@H](O)CC1=O)[C@H](C)C[C@@H]2OC)C(=O)O [FKpYEEI] | 45 nM | decreased affinity for the PLC SH2 domain; also recorded: reducing binding to the PLC SH2 domain
2 | CC[C@H](C)[C@H](NC(=O)[C@H](CCC(=O)O)NC(=O)[C@H](CCC(=O)O)NC(=O)[C@H](Cc1ccc(OP(=O)(O)O)cc1)NC(=O)COc1cccc([C@@H](CCc2ccc(OC)c(OC)c2)OC(=O)[C@@H]2CCCCN2C(=O)C(=O)C(C)(C)CC)c1)C(=O)O [SLFpYEEI] | 61 nM | reduced binding
